{"source": "patent US20060025390A1", "about": "“Treatment of hormone allergy and related symptoms and disorders” (priority 2004, published 2006)", "key": {"[1]": {"test_system": "patients experiencing hormone allergy symptoms", "experiment": "Clinical responses of hormone allergy symptoms to intradermal dilute progesterone (or estrogen)", "type": "in vivo, human", "conditions": "0.4 mg intradermally", "source_text": "Patients experiencing several hormone allergy symptoms experienced relief when administered dilute doses of progesterone either sublingually or intradermally.\nThe symptoms measured were irritation or pain in the neck, nose, eyes, throat, ear, skin, back, hips, upper extremities and lower extremities, headache, and shortness of breath. […]\nPatients were designated as responding patients in Table 1 if they experienced any relief of the indicated symptom. Patients were also asked to estimate the amount of improvement in the symptom, an average of which is\nIn Table 2 the probability that positive results (i.e. patients responding to treatment) were due to random effects was calculated using standard statistical analysis of patient tests. It was assumed that if the treatment has no effect, there is a 50% chance that a patient will indicate a positive response and a 50% chance that a patient will indicate a negative response. From this assumption, coupled with the actual data, one may calculate the probability that positive responses are due to an actual effect of the treatment and not simply random effects. In general, results with a less than 1% chance of being random are considered highly significant. Results with a less than 5% chance of being random are normally conclusively labeled as nonrandom. Thus, the results observed for most of the symptoms in Table 2 are highly significant, with only the results for ear irritation and pain falling merely in the nonrandom category.\nHormone samples may be prepared in any way suitable for the intended administration route. For administration through intradermal injection, samples may be prepared as they were in the studies of Examples 2 and 3. Specifically, the progesterone was formulated from commercially available injectable progesterone. Each ml of the final formulation contained […] of progesterone and 10% benzyl alcohol as a preservative in sesame oil. 0.1 ml was administered per patient intradermally. Estrogen samples were similarly prepared."}, "[2]": {"test_system": "serum IgG anti-estrogen antibodies", "experiment": "Competition ELISA: absorption of serum IgG anti-estrogen with specific and non-specific antigens", "type": "binding, human", "conditions": "for IgG level after absorption: absorption with 250 μg/mL, optical density 405 nm", "description": "(§1) For this, microtiter plates were coated with hormones and blocked by the addition of 2% BSA in PBST. 100 μl of serum diluent buffer was added to all wells. […] After 60 minutes incubation 100 μl serum anti-estrogen or anti-progesterone was added to all wells. […] Results were calculated as percentage of inhibition in antigen-antibody reaction.\n(§2) To examine whether antibodies to estrogen or progesterone are specific or cross-reactive, we performed competition ELISA by adding specific and non-specific antigens in liquid phase and examined prevention of serum antibody binding to the antigen in solid phase. […] For IgE anti-estrogen, this inhibition by estrogen-BSA was between 54-62%, and with progesterone-BSA, from 37-43%. […] This cross-reaction between estrogen and progesterone antibodies may be due to structural similarities between these two hormones."}, "[3]": {"test_system": "serum IgE anti-estrogen antibodies", "experiment": "Competition ELISA: absorption of serum IgE anti-estrogen with specific and non-specific antigens", "type": "binding, human", "conditions": "for IgE level after absorption: absorption with 250 μg/mL, optical density 405 nm", "description": "as §1, §2"}, "[4]": {"test_system": "serum IgG anti-17-α-hydroxyprogesterone antibodies", "experiment": "ELISA binding of IgG 17-α-hydroxyprogesterone antibodies to different hormones in solid phase", "design": "species or system human", "conditions": "for IgG binding (optical density): hormone in solid phase, 405 nm; for IgG % reaction: relative to 17-α-hydroxyprogesterone = 100", "description": "(§3) The ELISA inhibition method was used to determine specificity and cross-reactivity between different hormones and to ensure the degree of human IgG, IgM and IgE estrogen or progesterone binding to estrogen or progesterone in solid phase. […] 100 μl of sera from three different patients with high IgG, IgM or IgE antibodies against 17-α-hydroxyprogesterone was added to all wells. After shaking and incubation for 1 hr at room temperature, addition of enzyme labeled anti-human IgG, IgM or IgE, repeat of incubation, washing, and addition of substrate, color development was measured at 405 nm. Results were calculated as percentage of anti-17-α-hydroxyprogesterone binding to 17-α-hydroxyprogesterone and other hormones. Also, anti-estrogen binding to estrogen and other hormones in solid phase by progesterone in liquid phase was performed and calculated in a similar manner.\n(§4) Human sera containing 17-α-hydroxyprogesterone IgG-, IgM- and IgE-binding antibodies were reacted against progesterone, estrogen, hydrocortisone and cholesterol. In comparison to 100% binding of anti-17-α-hydroxyprogesterone-binding to 17-α-hydroxyprogesterone, the IgG anti-17-α-hydroxyprogesterone-binding to progesterone, estrogen, hydrocortisone and cholesterol was 69-77%, 25-30%, 39-53%, and less than 10% respectively (Table 4). The % binding of serum IgM and IgE anti-17-α-hydroxyprogesterone to 17-1-hydroxyprogesterone, progesterone, estrogen, hydrocortisone and cholesterol was similar to the binding of IgG. This binding of anti-17-α-hydroxyprogesterone to progesterone was the highest, followed by hydrocortisone, then estrogen, to almost no binding with cholesterol. Similar to this, human sera with IgG, IgM and IgE binding antibodies against estrogen were reacted with progesterone, 17-α-hydroxyprogesterone, hydrocortisone and cholesterol, in the presence of estrogen."}, "[5]": {"test_system": "serum IgM anti-17-α-hydroxyprogesterone antibodies", "experiment": "ELISA binding of IgM 17-α-hydroxyprogesterone antibodies to different hormones in solid phase", "design": "species or system human", "conditions": "for IgM binding (optical density): hormone in solid phase, 405 nm; for IgM % reaction: relative to 17-α-hydroxyprogesterone = 100", "description": "as §3, §4"}, "[6]": {"test_system": "serum IgE anti-17-α-hydroxyprogesterone antibodies", "experiment": "ELISA binding of IgE 17-α-hydroxyprogesterone antibodies to different hormones in solid phase", "design": "species or system human", "conditions": "for IgE binding (optical density): hormone in solid phase, 405 nm; for IgE % reaction: relative to 17-α-hydroxyprogesterone = 100", "description": "as §3, §4"}, "[7]": {"test_system": "serum IgG anti-estrogen antibodies", "experiment": "ELISA binding of IgG estrogen antibodies to different hormones in solid phase", "design": "species or system human", "conditions": "for IgG binding (optical density): hormone in solid phase, 405 nm; for IgG % reaction: relative to estrogen = 100", "description": "as §3, §4"}, "[8]": {"test_system": "serum IgM anti-estrogen antibodies", "experiment": "ELISA binding of IgM estrogen antibodies to different hormones in solid phase", "design": "species or system human", "conditions": "for IgM binding (optical density): hormone in solid phase, 405 nm; for IgM % reaction: relative to estrogen = 100", "description": "as §3, §4"}, "[9]": {"test_system": "serum IgE anti-estrogen antibodies", "experiment": "ELISA binding of IgE estrogen antibodies to different hormones in solid phase", "design": "species or system human", "conditions": "for IgE binding (optical density): hormone in solid phase, 405 nm; for IgE % reaction: relative to estrogen = 100", "description": "as §3, §4"}, "[10]": {"conditions": "antigen in liquid phase, over the three sera"}, "[11]": {"conditions": "relative to estrogen, over three sera"}}, "data": [{"substance": "estrogen", "values": [{"measurement": "symptom relief in patients not relieved by progesterone treatment", "setting": "[1]", "value": "experience relief"}, {"measurement": "inhibition of anti-estrogen binding to estrogen (IgG)", "setting": "[2]; [10]", "value": "did not significantly absorb"}, {"measurement": "IgG level after absorption", "setting": "[2]; serum sample 1, before absorption 1.83", "value": 1.53}, {"measurement": "IgG level after absorption", "setting": "[2]; serum sample 2, before absorption 1.25", "value": 0.95}, {"measurement": "IgG level after absorption", "setting": "[2]; serum sample 3, before absorption 0.76", "value": 0.54}, {"measurement": "inhibition of IgE anti-estrogen binding", "setting": "[3]; [10]", "value": "did not significantly absorb"}, {"measurement": "IgE level after absorption", "setting": "[3]; serum sample 1, before absorption 2.15", "value": 1.70}, {"measurement": "IgE level after absorption", "setting": "[3]; serum sample 2, before absorption 1.66", "value": 1.30}, {"measurement": "IgE level after absorption", "setting": "[3]; serum sample 3, before absorption 1.34", "value": 0.86}, {"measurement": "IgG anti-17-α-hydroxyprogesterone binding", "setting": "[4]; in comparison to 100% binding to 17-α-hydroxyprogesterone, over three sera", "value": "25-30%"}, {"measurement": "IgG binding (optical density)", "setting": "[4]; sample 1", "value": 0.48}, {"measurement": "IgG % reaction", "setting": "[4]; sample 1", "value": "−30", "unit": "%"}, {"measurement": "IgG binding (optical density)", "setting": "[4]; sample 2", "value": 0.24}, {"measurement": "IgG % reaction", "setting": "[4]; sample 2", "value": "−25", "unit": "%"}, {"measurement": "IgG binding (optical density)", "setting": "[4]; sample 3", "value": 0.18}, {"measurement": "IgM binding (optical density)", "setting": "[5]; sample 1", "value": 0.4}, {"measurement": "IgM % reaction", "setting": "[5]; sample 1", "value": "−31", "unit": "%"}, {"measurement": "IgM binding (optical density)", "setting": "[5]; sample 2", "value": 0.41}, {"measurement": "IgM % reaction", "setting": "[5]; sample 2", "value": "−25", "unit": "%"}, {"measurement": "IgM binding (optical density)", "setting": "[5]; sample 3", "value": 0.29}, {"measurement": "IgM % reaction", "setting": "[5]; sample 3", "value": "−32", "unit": "%"}, {"measurement": "IgE binding (optical density)", "setting": "[6]; sample 1", "value": 0.42}, {"measurement": "IgE % reaction", "setting": "[6]; sample 1", "value": "−29", "unit": "%"}, {"measurement": "IgE binding (optical density)", "setting": "[6]; sample 2", "value": 0.75}, {"measurement": "IgE % reaction", "setting": "[6]; sample 2", "value": "−31", "unit": "%"}, {"measurement": "IgE binding (optical density)", "setting": "[6]; sample 3", "value": 0.37}, {"measurement": "IgE % reaction", "setting": "[6]; sample 3", "value": "−25", "unit": "%"}, {"measurement": "IgG anti-estrogen binding", "setting": "[7]; [11]", "value": 100, "unit": "%"}, {"measurement": "IgG binding (optical density)", "setting": "[7]; sample 1", "value": 1.2}, {"measurement": "IgG % reaction", "setting": "[7]; sample 1", "value": "−100", "unit": "%"}, {"measurement": "IgG binding (optical density)", "setting": "[7]; sample 2", "value": 1.8}, {"measurement": "IgG % reaction", "setting": "[7]; sample 2", "value": "−100", "unit": "%"}, {"measurement": "IgG binding (optical density)", "setting": "[7]; sample 3", "value": 0.92}, {"measurement": "IgG % reaction", "setting": "[7]; sample 3", "value": "−100", "unit": "%"}, {"measurement": "IgM anti-estrogen binding", "setting": "[8]; [11]", "value": 100, "unit": "%"}, {"measurement": "IgM binding (optical density)", "setting": "[8]; sample 1", "value": 0.9}, {"measurement": "IgM % reaction", "setting": "[8]; sample 1", "value": "−100", "unit": "%"}, {"measurement": "IgM binding (optical density)", "setting": "[8]; sample 2", "value": 2.1}, {"measurement": "IgM % reaction", "setting": "[8]; sample 2", "value": "−100", "unit": "%"}, {"measurement": "IgM binding (optical density)", "setting": "[8]; sample 3", "value": 1.3}, {"measurement": "IgM % reaction", "setting": "[8]; sample 3", "value": "−100", "unit": "%"}, {"measurement": "IgE anti-estrogen binding", "setting": "[9]; [11]", "value": 100, "unit": "%"}, {"measurement": "IgE binding (optical density)", "setting": "[9]; sample 1", "value": 0.8}, {"measurement": "IgE % reaction", "setting": "[9]; sample 1", "value": "−100", "unit": "%"}, {"measurement": "IgE binding (optical density)", "setting": "[9]; sample 2", "value": 1.5}, {"measurement": "IgE % reaction", "setting": "[9]; sample 2", "value": "−100", "unit": "%"}, {"measurement": "IgE binding (optical density)", "setting": "[9]; sample 3", "value": 1.6}, {"measurement": "IgE % reaction", "setting": "[9]; sample 3", "value": "−100", "unit": "%"}]}]}
